Reference: patent US11033604B2, “Reagents and methods for treating bacterial infection” (priority 2018, dated 2021)
Non-standard residues stand in square brackets, D forms with d. No end group written: not given here.

Tests used:
[1] = tested on: E. coli UTI89 WT biofilms; experiment: In situ ThT assay of EM amyloid in E. coli UTI89 WT biofilms; format: cell-based
Protocol: FIG. 12. […] Error bars indicate standard deviation of the mean of at least three replicates. Significance values are p<0.05: *, p<0.01: **, p<0.001: ***.
Biofilms of the cystitis E. coli isolate UTI89 were cultivated in YESCA broth with 4% DMSO at 26° C., conditions which are known to elicit increased curli biogenesis. Varying doses of the dimeric α-sheet peptide, AP193, were also added to the cultures at the time of inoculation. AP193 is covalently linked through a single cysteine in each of its constituent monomers. Since DMSO was already present in the biofilm growth medium, AP193 stocks were supplemented with 4% DMSO to improve solubility, and the buffer solution was maintained at high pH (sodium carbonate, pH 9.6) to retain oxidation of the disulfide bond. After 48 hours of growth, biofilms were washed, homogenized, and stained with ThT.
(§1) UTI89 biofilms were also cultivated in the presence of an unstructured peptide, P1, which retains a mixture of L- and D-amino acids but lacks the α-sheet secondary structure of AP193.

[2] = tested on: E. coli UTI89 WT biofilms; experiment: Antibiotic susceptibility test with gentamicin (live/dead ratio and CFU counts); format: cell-based; conditions: 150 μg/mL gentamicin, 6 h, vs peptide-free controls
Protocol: FIG. 13. Synthetic α-sheet peptides increase antibiotic susceptibility of uropathogenic E. coli biofilms, as measured by A) live/dead fluorescence ratio and (B) CFU counts. Error bars indicate standard deviation of the mean of at least three replicates.
To test this hypothesis, biofilms of E. coli UTI89 WT were grown in YESCA broth+4% DMSO in 48 well plates at 26° C. Media was removed 6 h prior to the end of the 48 h incubation period and replaced either with fresh media alone or fresh media containing 150 μg/mL gentamicin (Gm), an aminoglycoside antibiotic. After the 6 h incubation, biofilms were harvested by aspirating the planktonic cells, rinsing the biofilm once with PBS, and then resuspending the biofilm in PBS. Biofilm suspensions were homogenized with a probe sonicator and subjected to one of two processing protocols. In the first assay, the bacterial density of each biofilm suspension was normalized by absorbance at 670 nm and then bacteria were stained with Live/Dead (Syto9/propidum iodide) to obtain a fluorescent readout of viability. In the second assay, biofilm suspensions were serially diluted in sterile PBS and then plated on agar plates to obtain colony-forming unit (CFU) counts.

GERB 337 = experiment: ThT assay of EM amyloid in clinical isolate biofilms; format: cell-based, E. coli; conditions: antibiotic resistant clinical isolate GERB 337
From the text: (§2) FIG. 12. Synthetic α-sheet peptides inhibit amyloid formation in uropathogenic E. coli biofilms. […] E) AP193 is also effective in reducing the EM amyloid content of two clinical isolate strains, GERB 319 and GERB 337. Error bars indicate standard deviation of the mean of at least three replicates. Significance values are p<0.05: *, p<0.01: **, p<0.001: ***.
(§3) To extend the applicability of synthetic α-sheet peptides beyond the well-characterized UTI89 system, we obtained several E. coli isolates from pediatric patients who presented with urinary tract infections.

GERB 319 = experiment: as above; format: cell-based, E. coli; conditions: antibiotic resistant clinical isolate GERB 319
From the text: as §2, §3

csgA expression = experiment: RT-qPCR of csgA expression in biofilms; format: cell-based, E. coli; conditions: biofilms grown with peptide vs peptide-free controls
From the text: as §1

[3] = tested on: E. coli UTI89 vsfGFP-9 biofilms; experiment: Immune clearance test: phagocytosis of biofilm bacteria by RAW 264.7 macrophages (flow cytometry); format: cell-based; conditions: RAW 264.7 cells, 10:1 bacteria:cell, 30 min, 37° C.
Protocol: FIG. 14. The macrophages are not able to phagocytose biofilm-associated bacteria (A). Administration of AP193 breaks up the biofilms and yields a greater fraction of free-swimming bacteria that are susceptible to phagocytosis (B).
To investigate this proposition, biofilms were cultivated in the presence or absence of synthetic α-sheet peptides (shown for AP193 in FIG. 14) and then co-incubated with murine macrophages. A chromosome-based GFP derivative of E. coli UTI89, vsfGFP-9, was used to visualize the extent of phagocytosis in each case with flow cytometry. Murine monocyte/macrophage-like cells, RAW 264.7, were cultured in DMED+10% FBS at 37° C. in 75 cm^2 flasks. Biofilms were grown in 48 well plates for 48 h in YESCA broth+4% DMSO at 26° C. Planktonic cells were aspirated and biofilms rinsed and gently detached from plates using sterile PBS. The suspensions were combined in a 10:1 (bacteria:cell) ratio with RAW 264.7 cells and incubated for 30 min at 37° C. in PBS to allow uptake of bacteria by macrophages. Trypsin was added at a concentration of 0.25% and incubated for 10 min to remove any bacteria bound to the external surfaces of the RAW 264.7 cells. […] Cells were then gated according to positive GFP (phagocytosed bacteria) using bacteria-free controls on a FACS Cantoll flow cytometer, and the percentage of cells positive for GFP was recorded and analyzed.

SA = experiment: Crystal violet biofilm assay; format: cell-based, Staphylococcus aureus
From the text: (§4) Furthermore, these same inhibitors are active against EC, SE, and SM.

Escherichia coli (EC) = experiment: Crystal violet biofilm assay; format: cell-based
From the text: as §4

[4] = tested on: Streptococcus mutans (SM); experiment: Crystal violet biofilm assay; format: cell-based
From the text: as §4

[5] = tested on: Staphylococcus epidermidis (SE); experiment: Crystal violet biofilm assay; format: cell-based
From the text: as §4

FapC = target: T1, FapC (Pseudomonas aeruginosa, UniProt Q9I2F0); experiment: FapC in vitro ThT aggregation assay; format: biochemical, P. aeruginosa; conditions: 0.2 mg/mL FapC, 37° C.
T1 sequence (Q9I2F0 25-340): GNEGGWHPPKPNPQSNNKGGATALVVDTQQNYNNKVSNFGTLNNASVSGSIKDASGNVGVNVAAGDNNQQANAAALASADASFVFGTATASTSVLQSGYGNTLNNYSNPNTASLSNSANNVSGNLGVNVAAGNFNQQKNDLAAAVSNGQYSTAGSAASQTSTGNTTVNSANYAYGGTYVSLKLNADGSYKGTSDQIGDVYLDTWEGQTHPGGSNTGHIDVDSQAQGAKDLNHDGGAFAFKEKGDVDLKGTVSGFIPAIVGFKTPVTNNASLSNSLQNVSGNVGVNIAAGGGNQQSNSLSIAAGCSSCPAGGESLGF
Protocol: FIG. 15. Action of synthetic α-sheet peptides in the P. aeruginosa system. […] Error bars indicate standard deviation of the mean of at least three replicates. Significance values are p<0.05: *, p<0.01: **, p<0.001: ***.
Samples are aliquoted into 96 well plates and incubated in a plate reader at 37° C. with shaking every 5 min. As previously, the fluorescence of ThT monitors protein fibril formation in real time. Synthetic α-sheet peptides may also be added to the reaction to determine whether they inhibit FapC fibril formation, as in the case of AP90 (FIG. 15A).

RGEmNyFwMNEYYGWtMnCkMGR (RGE[dM]N[dY]F[dW]MNEYYGW[dT]M[dN]C[dK]MGR) [AP193, hydrophobic AP90 derivative, variant to support different chemical coupling reactions]
EM amyloid content of biofilm (ThT fluorescence), varying doses ([1]; YESCA broth + 4% DMSO, 26° C., 48 h): dose-dependent reduction in ThT fluorescence | ThT fluorescence of biofilm at highest dose ([1]; highest dose): reduced the ThT fluorescence of WT biofilms to levels near those of the ΔcsgA strain | Efficacy of gentamicin (Gm) against biofilms (live/dead ratio, CFU counts) [2]: improved the efficacy of Gm | ThT fluorescence of biofilm (GERB 337): significant decrease in ThT fluorescence | ThT fluorescence of biofilm (GERB 319): significant decrease in ThT fluorescence | csgA expression (RT-qPCR) (csgA expression): did not reveal any significant changes in csgA expression | Susceptibility of biofilm bacteria to phagocytosis [3]: more susceptible to phagocytosis

RGEmNlSwMNEYSGWtMnLkMGR (RGEMNLSWMNEYSGWTMNLKMGR; not fully specified (residues 4, 6, 8, 16, 18, 20); printed as RGEmNlSwMNEYSGWtMnLkMGR) [AP90]
Biofilm inhibition (crystal violet, FIG. 10) (SA): inhibition | Activity against biofilm-forming bacteria (crystal violet) (Escherichia coli (EC)): active | Activity against biofilm-forming bacteria (crystal violet) [4]: active | Activity against biofilm-forming bacteria (crystal violet) [5]: active | FapC fibril formation (ThT) (FapC): inhibits fibril formation
